# Data from patent US20230355631A1, “PROCESS FOR IMPROVING FLUIDITY OF PALBOCICLIB ISETHIONATE AND COMPOSITION” (NANJING GRITPHARMA CO., LTD., priority 2020, published 2023).
# Test: Properties of the granules / powder mix (angle of repose, bulk density, tap density, compression index)
# Type: physicochemical
# Conditions: bulk drug powder
# Description: With reference to Example 7, 5 batches of samples 7-1, 7-2, 7-3, 7-4, and 7-5 were prepared by a capsule filling process after granules were prepared by dry granulation at different press roll pressures (a GL5-50 dry granulation machine with a 2.0 mm primary granulation sieve and a 1.0 mm secondary granulation sieve was used), and properties of the granules (including angle of repose, bulk density, and tap density), content uniformity of finished products, and other indexes were investigated separately. […] According to requirements of pharmacopoeia, the release rate of the samples is equal to or greater than 80% (Q) of the labelled amount in a medium with a pH of 1.2 within 30 minutes. Thus, the release rate of the various batches of samples (7-1, 7-2, 7-3, 7-4, and 7-5) was investigated in a medium with a pH of 1.2.
# The palbociclib isethionate has poor fluidity and is a loose powder. […] Especially when capsules are filled in commercial batches in a large scale, the problem of difficulty in automatic filling at high speed will be caused due to poor fluidity of the powder. Moreover, the filled capsules have great differences in loading capacity, so that the content uniformity and the product quality are unqualified. […]
smiles,measurement,value
CC(=O)c1c(C)c2cnc(Nc3ccc(N4CCNCC4)cn3)nc2n(C2CCCC2)c1=O.O=S(=O)(O)CCO [palbociclib isethionate],Fluidity of the raw material,poor fluidity
